In patent US20080312192A1, “Diaryl Urea Derivatives in the Treatment of Protein Kinase Dependent Diseases” (priority 2003, published 2008):

Key:
[1] = tested on: ITD-Ba/F3; settings: Mus musculus, BaF3, 48 h, read-out: Inhibition of Flt-3 dependent Proliferation (ED50) ITD-mutant
Procedure: (§1) Inhibition of Proliferation in Flt-3 Dependent Ba/F3 Cells:
(§2) The compound's potential to penetrate cell membranes and exert antiproliferative effects is determined in Ba/F3 cells dependent on mutated [ITD or D835Y; Gilliland and Griffin, Blood, Vol. 100, No. 5, 153242 (2002)] Flt-3 receptor kinases.
(§3) A modified protocol of the YO-PRO-1 assay in a 96-well format is based on the use of the wild-type IL-3-dependent hematopoietic cell line Ba/F3 (DSMZ, Braunschweig, Germany) and the mutant sub-lines ITD-Ba/F3 or D835Y-Ba/F3 [Weisberg et al., Cancer Cell 1 (5):433-43 (2000)] expressing constitutively activating Flt-3 kinases.
(§4) ITD-FLT3- or D835Y-FLT3-Ba/F3 cells are diluted in fresh medium to a final concentration of 3×10^5 cells per ml and 50 μl aliquots seeded into 96-well plates (1.5×10^4 cells per well). Subsequently, 50 μl 2× compound solutions were added and cells incubated for 48 h. The anti-proliferative and apoptotic activity of a compound is initially tested in triplicates at 10 μM, 1 μM and 0.1 μM concentration on both cell lines. Cells treated with DMSO alone (added to a final concentration of 0.1%) always serves as a control. In addition, a plate blank value is routinely determined in a well containing only 100 μl of medium and no cells.
(§5) To further profile a compound an ED50 determination is done starting at 10 μM or 3 μM of the compound of interest. From those concentrations, stepwise nine dilutions are prepared reaching the final concentrations of 2 μM and 0.5 μM, respectively.
(§6) Activity of inhibitors is assessed by the YO-PRO-1 assay as previously described in [Idziorek et al., J. Immunol. […] Briefly, after the treatment period of 48 h, a 25 μl aliquot of a solution containing 100 mM sodium citrate, pH 4.0, 134 mM sodium chloride and 12.5 μM YO-PRO-1 dye (YO-PRO-1 iodide, #Y3603, Molecular Probes) is directly added to the 100 μl medium in the wells of the 96-well plate. That results in a final dye concentration of 2.5 μM, the plate is then incubated for 10 min at ambient temperature in the dark. The uptake of the YO-PRO-1 dye into cells is assessed by a first measurement using a Cytofluor II 96-well plate reader (PerSeptive Biosystems) with the following settings: Excitation (nm) 485120 and Emission (nm) 530/25, Gain 75. After this first reading, 25 μl of lysis buffer consisting of 20 mM sodium citrate, pH 4.0, 26.8 mM sodium chloride, 0.4% NP40, 20 mM EDTA and 20 mM is added to each well. Cell lysis is completed within 60 min at room temperature and total amount of YO-PRO-1 bound to DNA is determined by a second measurement using the Cytofluor II 96-well reader with the identical setting as described above.

[2] = biological target: T1, RET (Homo sapiens, UniProt P07949); test: RET kinase inhibition (33P incorporation into poly(Glu,Tyr), GST-wtRET or GST-RET-Men2B); assay type: biochemical
T1 construct: expresses the amino acid region 658-1072 (Swiss prot No. Q9BTB0); made in house; host or cells: Sf9 insect cells (baculovirus, vector pFB-GSTX3)
T1 sequence (P07949 658-1072 isoform P07949-2): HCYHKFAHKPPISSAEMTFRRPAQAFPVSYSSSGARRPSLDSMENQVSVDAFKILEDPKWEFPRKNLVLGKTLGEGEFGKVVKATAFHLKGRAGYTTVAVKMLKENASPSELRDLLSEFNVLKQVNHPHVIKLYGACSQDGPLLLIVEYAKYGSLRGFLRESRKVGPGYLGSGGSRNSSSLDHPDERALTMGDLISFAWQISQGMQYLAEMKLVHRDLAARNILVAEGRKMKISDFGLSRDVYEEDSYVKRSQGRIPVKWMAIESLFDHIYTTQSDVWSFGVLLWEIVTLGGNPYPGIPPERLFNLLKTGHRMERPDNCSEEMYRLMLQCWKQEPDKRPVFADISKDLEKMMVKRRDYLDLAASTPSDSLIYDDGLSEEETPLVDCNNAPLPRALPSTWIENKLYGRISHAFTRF
Procedure: RET kinase inhibition is determined as follows:
The coding sequence for the cytoplasmic domain of wtRET is amplified by PCR from a cDNA library using specific primers. RET-Men2B is generated through site-directed mutagenesis resulting in the M918T mutation. The amplified DNA fragments and the pFB-GSTX3 vector are made compatible for ligation by digestion with SalI and KpnI. Ligation of these DNA fragments results in the baculovirus donor plasmids […] and pFB-GX3-RET-Men2B, respectively.
Production of virus: The baculovirus donor plasmids containing the kinase domains are transfected into the DH10Bac cell line (GIBCO) and the transfected cells are plated on selective agar plates. Colonies without insertion of the fusion sequence into the viral genome (carried by the bacteria) are blue. Single, white colonies are picked and viral DNA (bacmid) is isolated from the bacteria by standard plasmid purification procedures. Sf9 cells or Sf21 cells (American Type Culture Collection) are then transfected in 25 cm^2 flasks with the viral DNA using Cellfectin reagent.
Protein expression in Sf9 cells: Virus-containing media is collected from the transfected cell culture and used for infection to increase its titer. Virus-containing media obtained after two rounds of infection is used for large-scale protein expression. For large-scale protein expression 100 cm^2 round tissue culture plates are seeded with 5×10^7 cells/plate and infected with 1 mL of virus-containing media (approximately 5 MOIs). After 3 days, the cells are scraped off the plate and centrifuged at 500 rpm for 5 minutes. Cell pellets from 10-20, 100 cm^2 plates are re-suspended in 50 mL of ice-cold lysis buffer (25 mM Tris-HCl, pH 7.5, 2 mM EDTA, 1% NP-40, 1 mM DTT, 1 mM PMSF). The cells are stirred on ice for 15 minutes and then centrifuged at 5,000 rpms for 20 minutes.
Purification of GST-tagged proteins: The centrifuged cell lysate is loaded onto a 2 mL glutathione-sepharose column (Pharmacia) and washed 3× with 10 mL of 25 mM Tris-HCl, pH 7.5, 2 mM EDTA, 1 mM DTT, 200 mM NaCl. The GST-tagged proteins are then eluted by 10 applications (1 mL each) of 25 mM Tris-HCl, pH 7.5, 10 mM reduced-glutathione, 100 mM NaCl, 1 mM DTT, 10% glycerol and stored at −70° C.
Measure of enzyme activity: Tyrosine protein kinase assays with either purified GST-wtRET or GST-RET-Men2B protein are carried out in a final volume of 30 μL containing 15 ng of either GST-RET or GST-RET-Men2B protein, 20 mM Tris-HCl, pH 7.5, 1 mM MnCl2, 10 mM MgCl2, 1 mM DTT, 3 μg/mL poly(Glu, Tyr) 4:1, 1% DMSO, 2.0 μM ATP (γ-[^33P]-ATP 0.1 μCi). The activity is assayed in the presence or absence of inhibitors, by measuring the incorporation of ^33P from [γ^33P] ATP into poly(Glu, Tyr) 4:1. […] Subsequently, 40 μL of the reaction mixture are transferred onto Immobilon-PVDF membrane (Millipore) previously soaked for 5 minutes with methanol, rinsed with water, then soaked for 5 minutes with 0.5% H3PO4 and mounted on vacuum manifold with disconnected vacuum source. After spotting all samples, vacuum is connected and each well rinsed with 200 μL 0.5% H3PO4. Membranes are removed and washed 4× on a shaker with 1.0% H3PO4, once with ethanol. Membranes are counted after drying at ambient temperature, mounting in Packard TopCount 96-well frame, and addition of 10 μl/well of Microscint™ (Packard). […] One unit of protein kinase activity is defined as 1 nmole of ^33P transferred from [γ^33P] ATP to the substrate protein/minute/mg of protein at 37° C.

[3] = tested on: D835Y-Ba/F3; settings: Mus musculus, BaF3, 48 h, read-out: Inhibition of Flt-3 dependent Proliferation (ED50) D835-mutant
Procedure: as §1, §2, §3, §4, §5, §6

| EC50 [1] [nM] | IC50 [2] [nM] | EC50 [3] [nM] | SMILES |
| --- | --- | --- | --- |
| < 0.2 | 400 | 0.5 | CC(C)N1CCN(Cc2ccc(NC(=O)Nc3ccc(Oc4ccnc(N)n4)cc3)cc2C(F)(F)F)CC1 [Example 45, N-[4-(2-Amino-pyrimidin-4-yloxy)-phenyl]-N′-[4-(4-isopropylpiperazin-1-ylmethyl)-3-trifluoromethyl-phenyl]-urea] |
| 0.1 | 350 | 3.3 | CCN1CCN(Cc2ccc(NC(=O)Nc3ccc(Oc4ccnc(NC)n4)cc3)cc2C(F)(F)F)CC1 [Example 53c, 1-[4-(4-Ethyl-piperazin-1-ylmethyl)-3-trifluoromethyl-phenyl]-3-[4-(2-methylamino-pyrimidin-4-yloxy)-phenyl]-urea] |
